Reference: PMC9268516 (Molecules, 2022)

Legend:
H1N1 = conditions: cited from earlier work
chemokine co-receptor 5 = conditions: cited from earlier work
in vitro = conditions: Rhesus monkey
RAW 264.7 cells = conditions: cited from earlier work
influenza A/WSN/33 virus = conditions: cited from earlier work

Row | SMILES | IC50 (in vitro) | melting point | also measured
1 | CC(C)/C=c1\[nH]c(=O)/c(=C/c2ccc(O)cc2)[nH]c1=O [(3Z,6Z)-3-(4-hydroxybenzylidene)-6-isobutylidenepiperazine-2,5-dione, reference compound] | – | – | IC50 (H1N1): 6.8 ± 1.5 µM
2 | CCCCN1C(=O)[C@@H]([C@H](O)C2CCCCC2)NC(=O)C12CCN(Cc1ccc(Oc3ccc(C(=O)O)cc3)cc1)CC2 [Aplaviroc] | – | – | binding affinity to chemokine co-receptor 5 (chemokine co-receptor 5): high binding affinity
3 | C=CCn1c(=O)/c(=C/C(C)C)[nH]c(=O)/c1=C/c1ccccc1 [Compound 13b, (3Z,6Z)-4-Allyl-3-benzylidene-6-(2-methylpropylidene)-2,5-diketopiperazine] | > 128 µg/mL | – | –
4 | CC(C)=CCn1c(=O)/c(=C/C(C)C)[nH]c(=O)/c1=C/c1ccccc1 [Compound 13c, (3Z,6Z)-3-Benzylidene-6-(2-methylpropylidene)-4-(3-methylbut-2-en-1-yl)-2,5-diketopiperazine] | > 128 µg/mL | 175 to 178 °C | –
5 | CC(C)/C=c1/c(=O)[nH]/c(=C\c2ccccc2)c(=O)n1C [Compound 13d, (3Z,6Z)-3-Benzylidene-6-(2-methylpropylidene)-1-methyl-2,5-diketopiperazine] | > 128 µg/mL | – | –
6 | C=CCn1c(=O)/c(=C/c2ccccc2)[nH]c(=O)/c1=C/C(C)C [Compound 13e, (3Z,6Z)-1-Allyl-3-benzylidene-6-(2-methylpropylidene)-2,5-diketopiperazine] | – | 115 to 119 °C | –
7 | CC(C)/C=c1\[nH]c(=O)/c(=C/c2ccccc2)[nH]c1=O [Compound 13f, (3Z,6Z)-3-Benzylidene-6-(2-methylpropylidene)-2,5-diketopiperazine] | – | 243 to 246 °C | IC50 (H1N1): 41.5 ± 4.5 µM
8 | CC(C)C=c1c(=O)[nH]c(=Cc2ccccc2)c(=O)n1CCN1CCCC1 [Compound 14c, (3Z,6E)-3-Benzylidene-6-(2-methylpropylidene)-1-(1-ethylpyrrolidine)-2,5-diketopiperazine] | > 128 µg/mL | 158 to 162 °C | –
9 | CC(C)/C=c1\c(=O)n(O)/c(=C/c2ccccc2)c(=O)n1C [LS-C, reference compound] | > 128 µg/mL | – | anti-inflammatory effect (RAW 264.7 cells): anti-inflammatory effect
10 | CC(C)/C=c1\c(=O)[nH]/c(=C/c2ccccc2)c(=O)n1C [LS-D, reference compound] | > 128 µg/mL | – | anti-inflammatory effect (RAW 264.7 cells): anti-inflammatory effect
11 | C=CC(C)(C)c1[nH]c2ccccc2c1/C=c1\[nH]c(=O)c(=C)[nH]c1=O [Neoechinulin B] | – | – | inhibitory rate (influenza A/WSN/33 virus): 70.48%
